Assay results: US9890185B2, “Urea derivatives useful as kinase inhibitors” (Respivert Limited, priority 2013, dated 2018)

How the values were obtained:
GSK 3α = GSK 3α (Homo sapiens (Human), UniProt P49840); experiment: GSK 3α enzyme inhibition (FRET, Z-LYTE, Method 2); type: biochemical; conditions: read-out: IC50 Values for Enzyme Inhibition, GSK3α
Outline: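 Human GSK3α (500 ng/mL) preincubated with compound (4, 0.4, 0.04 or 0.004 μg/mL) at RT for 2 h (Method 1) or 105 min (Method 2). Then FRET peptide (8 μM) and ATP (40 μM) added for 1 h, followed by protease development for 1 h. IC50 from the coumarin/fluorescein emission ratio relative to uninhibited control.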

Syk = Syk (Homo sapiens (Human), UniProt P43405); experiment: Syk enzyme inhibition (FRET, Z-LYTE); type: biochemical
Outline: (§1)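 c-Src (3000 ng/mL) or Syk (2000 ng/mL) stock was preincubated with compound (4–0.004 μg/mL stocks) for 2 hr at RT. FRET peptide (8 μM stock) and ATP (800 μM c-Src, 60 μM Syk, as added) were then added for 1 hr, followed by 1 hr protease development. The coumarin/fluorescein emission ratio gave % inhibition and IC50.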

PBMCs [1] = experiment: IFN gamma release in CD3/CD28 stimulated PBMC cells (assay c); type: cell-based; conditions: Homo sapiens, read-out: IC50 Values for Inhibition of Cytokine Release, PBMCs IFNγ
Outline: (§2)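 Healthy-donor PBMCs (density-gradient isolated) stimulated on plates pre-coated with anti-CD3 (0.3 μg/mL) and anti-CD28 (3 μg/mL), with compound, for 3 days under normal culture conditions. IL-2 and IFN gamma in supernatants measured by sandwich ELISA; IC50 from dose-response curve.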

c-Src = c-Src (Homo sapiens (Human), UniProt P12931); experiment: c-Src enzyme inhibition (FRET, Z-LYTE); type: biochemical
c-Src, sequence (P12931 whole entry, looked up): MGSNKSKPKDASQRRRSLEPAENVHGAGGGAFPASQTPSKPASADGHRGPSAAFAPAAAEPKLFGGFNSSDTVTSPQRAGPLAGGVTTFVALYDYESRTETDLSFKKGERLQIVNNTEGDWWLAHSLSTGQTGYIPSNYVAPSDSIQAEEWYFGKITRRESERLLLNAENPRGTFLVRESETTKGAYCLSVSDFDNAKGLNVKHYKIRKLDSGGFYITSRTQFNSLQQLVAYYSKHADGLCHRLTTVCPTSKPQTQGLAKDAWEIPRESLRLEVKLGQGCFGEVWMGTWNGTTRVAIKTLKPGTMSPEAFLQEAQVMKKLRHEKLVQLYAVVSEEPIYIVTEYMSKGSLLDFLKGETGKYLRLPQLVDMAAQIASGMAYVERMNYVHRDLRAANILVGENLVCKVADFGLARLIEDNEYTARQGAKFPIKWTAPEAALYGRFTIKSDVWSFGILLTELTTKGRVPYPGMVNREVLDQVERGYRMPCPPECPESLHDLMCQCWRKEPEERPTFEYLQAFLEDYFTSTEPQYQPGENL
Outline: as §1

PBMCs [2] = experiment: Cell mitosis assay in PBMCs (assay g); type: cell-based; conditions: Homo sapiens, PBMC, test compound 5 μg/mL
Outline: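 Human PBMCs from healthy donors, stimulated with 2% PHA for 48 hr, then exposed to test compounds for 20 hr, with demecolcine (0.1 μg/mL) added 2 hr before harvest. Cells fixed/permeabilised, stained for phospho-histone 3 and propidium iodide, and read by flow cytometry gated on lymphocytes. % mitosis inhibition vs 0.5% DMSO vehicle.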

[3] = target: p38 MAPKα isoform (MAPK14) (Homo sapiens (Human), UniProt Q16539); experiment: p38 MAPKα enzyme inhibition (FRET, Z-LYTE, Method 2); type: biochemical
p38 MAPKα isoform (MAPK14), sequence (Q16539 whole entry, canonical isoform): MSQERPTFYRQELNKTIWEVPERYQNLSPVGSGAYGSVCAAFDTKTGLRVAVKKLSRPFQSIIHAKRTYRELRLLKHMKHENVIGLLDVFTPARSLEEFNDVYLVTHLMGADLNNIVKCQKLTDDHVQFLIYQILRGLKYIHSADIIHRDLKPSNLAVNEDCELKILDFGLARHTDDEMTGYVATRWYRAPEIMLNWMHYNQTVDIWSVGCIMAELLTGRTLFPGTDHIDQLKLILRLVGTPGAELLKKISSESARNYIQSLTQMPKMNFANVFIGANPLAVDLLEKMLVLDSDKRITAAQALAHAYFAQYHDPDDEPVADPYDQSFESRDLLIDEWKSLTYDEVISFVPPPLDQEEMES
Outline: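 Z-LYTE FRET: p38 MAPKα (80 ng/mL for Method 1, 200 ng/mL for Method 2, pre-dilution) preincubated 2 hr RT with compound (4–0.004 μg/mL solutions), activity read via MAPKAP-K2 phosphorylation after 1 hr RT and 1 hr protease development. Coumarin/fluorescein ratio gives phosphorylation; % inhibition versus uninhibited control, IC50 from concentration-response curve.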

PBMCs [4] = experiment: LPS-induced IL-8 release in PBMC cells (assay b); type: cell-based, human; conditions: Homo sapiens, PBMC; LPS-stimulated PBMCs; read-out: IC50 Values for Inhibition of Cytokine Release, PBMCs IL-8
Outline: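 Human PBMCs from healthy donors, isolated by density gradient, were pretreated with compound for 2 h and then stimulated with 1 ng/mL LPS (E. coli 0111:B4) for 24 h at 37° C, 5% CO2. Supernatant IL-8 and TNFα were measured by sandwich ELISA, and IC50 was taken from the dose-response curve.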

PBMCs [5] = experiment: IL-2 release in CD3/CD28 stimulated PBMC cells (assay c); type: cell-based; conditions: Homo sapiens, read-out: IC50 Values for Inhibition of Cytokine Release, PBMCs IL-2
Outline: as §2

GSK 3α, sequence (P49840 whole entry): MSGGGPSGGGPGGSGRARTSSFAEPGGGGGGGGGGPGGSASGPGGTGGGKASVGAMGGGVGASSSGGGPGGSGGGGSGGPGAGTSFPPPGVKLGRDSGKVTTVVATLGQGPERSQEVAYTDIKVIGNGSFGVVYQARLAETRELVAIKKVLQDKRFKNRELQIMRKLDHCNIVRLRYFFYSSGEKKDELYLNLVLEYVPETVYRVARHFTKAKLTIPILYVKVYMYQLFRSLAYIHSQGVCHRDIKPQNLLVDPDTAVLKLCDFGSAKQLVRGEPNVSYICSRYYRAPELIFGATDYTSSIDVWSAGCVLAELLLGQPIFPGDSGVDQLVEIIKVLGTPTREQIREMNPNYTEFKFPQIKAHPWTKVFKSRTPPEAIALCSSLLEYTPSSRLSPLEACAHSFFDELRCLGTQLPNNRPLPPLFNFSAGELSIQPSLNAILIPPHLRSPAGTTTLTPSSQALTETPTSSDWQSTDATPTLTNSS

SMILES	IC50 (GSK 3α)	IC50 (Syk)	IC50 (PBMCs [1])	IC50 (c-Src)	inhibition at 5 µg/mL (PBMCs [2])	IC50 [3]	IC50 (PBMCs [4])	IC50 (PBMCs [5])
COc1cc(Nc2cc(Oc3ccc(NC(=O)Nc4cc(C(C)(C)C)cc(CC(N)=O)c4OC)c4ccccc34)ccn2)cc(S(C)(=O)=O)c1 [Example 56, 2-(5-(tert-Butyl)-2-methoxy-3-(3-(4-((2-((3-methoxy-5-(methylsulfonyl)phenyl)amino)pyridin-4-yl)oxy)naphthalen-1-yl)ureido)phenyl)acetamide]	1600 nM	> 1430 nM	9.5 nM	83 nM	17.6%	188 nM	1.2 nM	234 nM
COc1cc(Nc2cc(Oc3ccc(NC(=O)Nc4cc(C(C)(C)C)cc(OCCO)c4OC)c4ccccc34)ccn2)cc(C(N)=O)c1 [Example 57, 3-((4-((4-(3-(5-(tert-Butyl)-3-(2-hydroxyethoxy)-2-methoxyphenyl)ureido)naphthalen-1-yl)oxy)pyridin-2-yl)amino)-5-methoxybenzamide]	3870 nM	> 1500 nM	7.8 nM	98 nM	50.6%	209 nM	1.1 nM	92.9 nM
COc1cc(Nc2cc(Oc3ccc(NC(=O)Nc4cc(C(C)(C)C)cc(P(C)(C)=O)c4OC)c4ccccc34)ccn2)cc(S(=O)(=O)N(C)C)c1 [Example 58, 3-((4-((4-(3-(5-(tert-Butyl)-3-(dimethylphosphoryl)-2-methoxyphenyl)ureido)naphthalen-1-yl)oxy)pyridin-2-yl)amino)-5-methoxy-N,N-dimethylbenzenesulfonamide]	7100 nM	> 1340 nM	3.2 nM	101 nM	2.9%	527 nM	1.4 nM	587 nM
COCCOCCOCCNC(=O)c1cc(Nc2cc(Oc3ccc(NC(=O)Nc4cc(C(C)(C)C)cc(C(=O)NCCN5CCOCC5)c4OC)c4ccccc34)ccn2)cc(OC)c1 [Example 59, 5-(tert-Butyl)-2-methoxy-3-(3-(4-((2-((3-methoxy-5-((2-(2-(2-methoxyethoxy)ethoxy)ethyl)carbamoyl)phenyl)amino)pyridin-4-yl)oxy)naphthalen-1-yl)ureido)-N-(2-morpholinoethyl)benzamide]	2510 nM	560 nM	2.9 nM	43 nM	30.9%	127 nM	1.7 nM	55.6 nM
COc1cc(Nc2cc(Oc3ccc(NC(=O)Nc4cc(C(C)(C)C)cc(C(=O)NCCN5CCOCC5)c4OC)c4ccccc34)ccn2)cc(C(=O)NCCN2CCOCC2)c1 [Example 60, 5-(tert-Butyl)-2-methoxy-3-(3-(4-((2-((3-methoxy-5-((2-morpholinoethyl)carbamoyl)phenyl)amino)pyridin-4-yl)oxy)naphthalen-1-yl)ureido)-N-(2-morpholinoethyl)benzamide]	1700 nM	206 nM	7 nM	35 nM	47.5%	128 nM	2.4 nM	101 nM
COc1cc(Nc2cc(Oc3ccc(NC(=O)Nc4cc(C(C)(C)C)cc(C(=O)NCCN5CCOCC5)c4OC)c4ccccc34)ccn2)cc(OC)c1 [Example 62, 5-(tert-Butyl)-3-(3-(4-((2-((3,5-dimethoxyphenyl)amino)pyridin-4-yl)oxy)naphthalen-1-yl)ureido)-2-methoxy-N-(2-morpholinoethyl)benzamide]	> 11400 nM	145 nM	4.8 nM	105 nM	54.1%	482 nM	2.4 nM	24.9 nM
COc1cccc(Nc2cc(Oc3ccc(NC(=O)Nc4cc(C(C)(C)C)cc(C(=O)NCCN5CCOCC5)c4OC)c4ccccc34)ccn2)c1 [Example 63, 5-(tert-Butyl)-2-methoxy-3-(3-(4-((2-((3-methoxyphenyl)amino)pyridin-4-yl)oxy)naphthalen-1-yl)ureido)-N-(2-morpholinoethyl)benzamide]	7660 nM	154 nM	7.7 nM	98 nM	45.1%	811 nM	2.5 nM	17.5 nM
COc1cc(Nc2cc(Oc3ccc(NC(=O)Nc4cc(C(C)(C)C)cc(C(=O)NCCN5CC[S+]([O-])CC5)c4OC)c4ccccc34)ccn2)cc(OC)c1 [Example 64, 5-(tert-Butyl)-3-(3-(4-((2-((3,5-dimethoxyphenyl)amino)pyridin-4-yl)oxy)naphthalen-1-yl)ureido)-2-methoxy-N-(2-(1-oxidothiomorpholino)ethyl)benzamide]	9390 nM	156 nM	13.3 nM	90 nM	32.4%	945 nM	2.6 nM	62.7 nM
COc1cc(Nc2cc(Oc3ccc(NC(=O)Nc4cc(C(C)(C)C)cc(CC(N)=O)c4OC)c4ccccc34)ccn2)cc(C(=O)NCCN2CC[S+]([O-])CC2)c1 [Example 65, 3-((4-((4-(3-(3-(2-Amino-2-oxoethyl)-5-(tert-butyl)-2-methoxyphenyl)ureido)naphthalen-1-yl)oxy)pyridin-2-yl)amino)-5-methoxy-N-(2-(1-oxidothiomorpholino)ethyl)benzamide]	1220 nM	190 nM	7.6 nM	15 nM	8.7%	17 nM	4.3 nM	31.3 nM
COc1cc(Nc2cc(Oc3ccc(NC(=O)Nc4cc(C(C)(C)C)cc(OC(CO)CO)c4OC)c4ccccc34)ccn2)cc(C(N)=O)c1 [Example 66, 3-((4-((4-(3-(5-(tert-Butyl)-3-((1,3-dihydroxypropan-2-yl)oxy)-2-methoxyphenyl)ureido)naphthalen-1-yl)oxy)pyridin-2-yl)amino)-5-methoxybenzamide]	4280 nM	918 nM	7.7 nM	54 nM	46.4%	222 nM	2.2 nM	60.9 nM
COc1cc(Nc2cc(Oc3ccc(NC(=O)Nc4cc(C(C)(C)C)cc(CC(N)=O)c4OC)c4ccccc34)ccn2)cc(C(=O)NCCCN2CC[S+]([O-])CC2)c1 [Example 68, 3-((4-((4-(3-(3-(2-Amino-2-oxoethyl)-5-(tert-butyl)-2-methoxyphenyl)ureido)naphthalen-1-yl)oxy)pyridin-2-yl)amino)-5-methoxy-N-(3-(1-oxidothiomorpholino)propyl)benzamide]	1320 nM	143 nM	8 nM	18 nM	-0.6%	13 nM	3.8 nM	40.6 nM
COc1cc(Nc2cc(Oc3ccc(NC(=O)Nc4cc(C(C)(C)C)cc([S+](C)[O-])c4OC)c4ccccc34)ccn2)cc(C(=O)NCCN2CC[S+]([O-])CC2)c1 (centres unmarked) [Example 69, 3-((4-((4-(3-(5-(tert-Butyl)-2-methoxy-3-(methylsulfinyl)phenyl)ureido)naphthalen-1-yl)oxy)pyridin-2-yl)amino)-5-methoxy-N-(2-(1-oxidothiomorpholino)ethyl)benzamide]	1960 nM	124 nM	7.6 nM	12 nM	8.9%	16 nM	2.3 nM	75.7 nM
COc1cc(Nc2cc(Oc3ccc(NC(=O)Nc4cc(C(C)(C)C)cc(CNC(C)=O)c4OC)c4ccccc34)ccn2)cc(C(=O)NCCN2CC[S+]([O-])CC2)c1 [Example 71, 3-((4-((4-(3-(3-(Acetamidomethyl)-5-(tert-butyl)-2-methoxyphenyl)ureido)naphthalen-1-yl)oxy)pyridin-2-yl)amino)-5-methoxy-N-(2-(1-oxidothiomorpholino)ethyl)benzamide]	1200 nM	26 nM	7.2 nM	14 nM	48.3%	25 nM	3.4 nM	33.7 nM
